Measurements: US9738902B2, “Modified PYR/PYL receptors activated by ligands” (priority 2013, dated 2017)

Legend:
Assay in all cases: Y2H Pocket Library Screen (HAB1, X-gal)
Assay type in all cases: cell-based
PYR1 K59R M158C = target: T1, PYR1 K59R M158C (Arabidopsis thaliana, UniProt O49686, K59R/M158C)
T1 construct: expressed in transfected cells; host or cells: S. cerevisiae Y190 two-hybrid reporter strain
Procedure, shortened: (§1)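 Two-day, 30° C yeast two-hybrid spot assay: Y190 carrying PYR1 mutant and pACT-HAB1 on selective SD (–Leu, –Trp) plus 100 μM compound, scored by β-galactosidase X-gal stain of chloroform-lysed colonies.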

PYR1 K59R M158I = target: T2, PYR1 K59R M158I (Arabidopsis thaliana, UniProt O49686, K59R/M158I)
T2 construct: expressed in transfected cells; host or cells: S. cerevisiae Y190 two-hybrid reporter strain
Procedure, shortened: as §1

PYR1 K59R E141H = target: T3, PYR1 K59R E141H (Arabidopsis thaliana, UniProt O49686, E141H/K59R)
T3 construct: expressed in transfected cells; host or cells: S. cerevisiae Y190 two-hybrid reporter strain
Procedure, shortened: as §1

PYR1 K59R V164E = target: T4, PYR1 K59R V164E (Arabidopsis thaliana, UniProt O49686, K59R/V164E)
T4 construct: expressed in transfected cells; host or cells: S. cerevisiae Y190
Procedure, shortened: as §1

PYR1 K59R M158V = target: T5, PYR1 K59R M158V (Arabidopsis thaliana, UniProt O49686, K59R/M158V)
T5 construct: expressed in transfected cells; host or cells: S. cerevisiae Y190 two-hybrid reporter strain
Procedure, shortened: as §1

PYR1 K59R N167C = target: T6, PYR1 K59R N167C (Arabidopsis thaliana, UniProt O49686, K59R/N167C)
T6 construct: expressed in transfected cells; host or cells: S. cerevisiae Y190 two-hybrid reporter strain
Procedure, shortened: as §1

PYR1 K59R V164Q = target: T7, PYR1 K59R V164Q (Arabidopsis thaliana, UniProt O49686, K59R/V164Q)
T7 construct: expressed in transfected cells; host or cells: S. cerevisiae Y190 two-hybrid reporter strain
T7 sequence (O49686 whole entry K59R/V164Q): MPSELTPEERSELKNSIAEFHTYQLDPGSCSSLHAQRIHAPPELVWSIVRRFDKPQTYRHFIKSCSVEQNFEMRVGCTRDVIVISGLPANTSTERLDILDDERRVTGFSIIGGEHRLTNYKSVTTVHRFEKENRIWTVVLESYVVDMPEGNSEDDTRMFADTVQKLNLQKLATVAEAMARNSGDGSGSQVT
T7 sequence (Q9CAJ0 23-511 partner): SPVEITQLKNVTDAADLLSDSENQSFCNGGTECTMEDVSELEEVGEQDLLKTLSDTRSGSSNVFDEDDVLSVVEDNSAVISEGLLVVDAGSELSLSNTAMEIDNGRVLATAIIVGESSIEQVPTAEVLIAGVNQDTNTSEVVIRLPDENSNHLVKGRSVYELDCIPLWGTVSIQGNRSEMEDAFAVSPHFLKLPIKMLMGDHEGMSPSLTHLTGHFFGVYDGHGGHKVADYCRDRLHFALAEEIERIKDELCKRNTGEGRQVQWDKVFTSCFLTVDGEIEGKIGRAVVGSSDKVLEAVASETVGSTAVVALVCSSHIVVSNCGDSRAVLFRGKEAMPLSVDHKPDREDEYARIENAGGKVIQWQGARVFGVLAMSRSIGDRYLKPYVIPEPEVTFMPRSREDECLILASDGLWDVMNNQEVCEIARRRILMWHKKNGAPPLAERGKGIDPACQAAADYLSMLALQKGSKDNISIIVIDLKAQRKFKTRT
Procedure, shortened: as §1

PYR1 K59R N167T = target: T8, PYR1 K59R N167T (Arabidopsis thaliana, UniProt O49686, K59R/N167T)
T8 construct: expressed in transfected cells; host or cells: S. cerevisiae Y190 two-hybrid reporter strain
Procedure, shortened: as §1

PYR1 K59R N167A = target: T9, PYR1 K59R N167A (Arabidopsis thaliana, UniProt O49686, K59R/N167A)
T9 construct: expressed in transfected cells; host or cells: S. cerevisiae Y190 two-hybrid reporter strain
Procedure, shortened: as §1

PYR1 K59R N167G = target: T10, PYR1 K59R N167G (Arabidopsis thaliana, UniProt O49686, K59R/N167G)
T10 construct: expressed in transfected cells; host or cells: S. cerevisiae Y190 two-hybrid reporter strain
Procedure, shortened: as §1

PYR1 K59R I110M = target: T11, PYR1 K59R I110M (Arabidopsis thaliana, UniProt O49686, I110M/K59R)
T11 construct: expressed in transfected cells; host or cells: S. cerevisiae Y190 two-hybrid reporter strain
Procedure, shortened: as §1

PYR1 K59R N167S = target: T12, PYR1 K59R N167S (Arabidopsis thaliana, UniProt O49686, K59R/N167S)
T12 construct: expressed in transfected cells; host or cells: S. cerevisiae Y190 two-hybrid reporter strain
Procedure, shortened: as §1

PYR1 K59R A160T = target: T13, PYR1 K59R A160T (Arabidopsis thaliana, UniProt O49686, A160T/K59R)
T13 construct: expressed in transfected cells; host or cells: S. cerevisiae Y190
Procedure, shortened: as §1

PYR1 K59R E141Y = target: T14, PYR1 K59R E141Y (Arabidopsis thaliana, UniProt O49686, E141Y/K59R)
T14 construct: expressed in transfected cells; host or cells: S. cerevisiae Y190 two-hybrid reporter strain
T14 sequence (O49686 whole entry K59R/E141Y): as the sequence (O49686 whole entry K59R/V164Q) above, with E141Y, Q164V counted along it
T14 sequence (Q9CAJ0 23-511, further chain): as the sequence (Q9CAJ0 23-511 partner) above
Procedure, shortened: as §1

PYR1 K59R T162K = target: T15, PYR1 K59R T162K (Arabidopsis thaliana, UniProt O49686, K59R/T162K)
T15 construct: expressed in transfected cells; host or cells: S. cerevisiae Y190
Procedure, shortened: as §1

PYR1 K59R V164S = target: T16, PYR1 K59R V164S (Arabidopsis thaliana, UniProt O49686, K59R/V164S)
T16 construct: expressed in transfected cells; host or cells: S. cerevisiae Y190 two-hybrid reporter strain
T16 sequence (O49686 whole entry K59R/V164S): as the sequence (O49686 whole entry K59R/V164Q) above, with Q164S counted along it
T16 sequence (Q9CAJ0 23-511 partner): as the sequence (Q9CAJ0 23-511 partner) above
Procedure, shortened: as §1

PYR1 K59R H115N = target: T17, PYR1 K59R H115N (Arabidopsis thaliana, UniProt O49686, H115N/K59R)
T17 construct: expressed in transfected cells; host or cells: S. cerevisiae Y190 two-hybrid reporter strain
Procedure, shortened: as §1

PYR1 K59R A160Y = target: T18, PYR1 K59R A160Y (Arabidopsis thaliana, UniProt O49686, A160Y/K59R)
T18 construct: expressed in transfected cells; host or cells: S. cerevisiae Y190
T18 sequence (O49686 whole entry K59R/A160Y): as the sequence (O49686 whole entry K59R/V164Q) above, with A160Y, Q164V counted along it
T18 sequence (Q9CAJ0 23-511 partner): as the sequence (Q9CAJ0 23-511 partner) above
Procedure, shortened: as §1

PYR1 K59R F159C = target: T19, PYR1 K59R F159C (Arabidopsis thaliana, UniProt O49686, F159C/K59R)
T19 construct: expressed in transfected cells; host or cells: S. cerevisiae Y190 two-hybrid reporter strain
Procedure, shortened: as §1

PYR1 K59R F108T = target: T20, PYR1 K59R F108T (Arabidopsis thaliana, UniProt O49686, F108T/K59R)
T20 construct: expressed in transfected cells; host or cells: S. cerevisiae Y190 yeast two-hybrid reporter strain
Procedure, shortened: as §1

PYR1 K59R F108G = target: T21, PYR1 K59R F108G (Arabidopsis thaliana, UniProt O49686, F108G/K59R)
T21 construct: expressed in transfected cells; host or cells: S. cerevisiae Y190 yeast two-hybrid reporter strain
T21 sequence (O49686 whole entry K59R/F108G): as the sequence (O49686 whole entry K59R/V164Q) above, with F108G, Q164V counted along it
T21 sequence (Q9CAJ0 23-511 partner): as the sequence (Q9CAJ0 23-511 partner) above
Procedure, shortened: as §1

PYR1 K59R F108I = target: T22, PYR1 K59R F108I (Arabidopsis thaliana, UniProt O49686, F108I/K59R)
T22 construct: expressed in transfected cells; host or cells: S. cerevisiae Y190 yeast two-hybrid reporter strain
Procedure, shortened: as §1

PYR1 K59R F159M = target: T23, PYR1 K59R F159M (Arabidopsis thaliana, UniProt O49686, F159M/K59R)
T23 construct: expressed in transfected cells; host or cells: S. cerevisiae Y190
T23 sequence (O49686 whole entry K59R/F159M): as the sequence (O49686 whole entry K59R/V164Q) above, with F159M, Q164V counted along it
T23 sequence (Q9CAJ0 23-511, further chain): as the sequence (Q9CAJ0 23-511 partner) above
Procedure, shortened: as §1

PYR1 K59R F108V = target: T24, PYR1 K59R F108V (Arabidopsis thaliana, UniProt O49686, F108V/K59R)
T24 construct: expressed in transfected cells; host or cells: S. cerevisiae Y190 yeast two-hybrid reporter strain
Procedure, shortened: as §1

PYR1 K59R F108S = target: T25, PYR1 K59R F108S (Arabidopsis thaliana, UniProt O49686, F108S/K59R)
T25 construct: expressed in transfected cells; host or cells: S. cerevisiae Y190 yeast two-hybrid reporter strain
T25 sequence (O49686 whole entry K59R/F108S): as the sequence (O49686 whole entry K59R/V164Q) above, with F108S, Q164V counted along it
T25 sequence (Q9CAJ0 23-511 partner): as the sequence (Q9CAJ0 23-511 partner) above
Procedure, shortened: as §1

PYR1 K59R F159T = target: T26, PYR1 K59R F159T (Arabidopsis thaliana, UniProt O49686, F159T/K59R)
T26 construct: expressed in transfected cells; host or cells: S. cerevisiae Y190
Procedure, shortened: as §1

PYR1 K59R F159A = target: T27, PYR1 K59R F159A (Arabidopsis thaliana, UniProt O49686, F159A/K59R)
T27 construct: expressed in transfected cells; host or cells: S. cerevisiae Y190 two-hybrid reporter strain
Procedure, shortened: as §1

PYR1 K59R S122G = target: T28, PYR1 K59R S122G (Arabidopsis thaliana, UniProt O49686, K59R/S122G)
T28 construct: expressed in transfected cells; host or cells: S. cerevisiae Y190 two-hybrid reporter strain
Procedure, shortened: as §1

Measured: Threshold

N#Cc1c(Cl)cccc1Cl [Dichlobenil, dichlobenil]
not listed: PYR1 K59R F159C | PYR1 K59R F108T | PYR1 K59R F108G | PYR1 K59R F108I | PYR1 K59R F159M | PYR1 K59R F108V | PYR1 K59R F108S | PYR1 K59R F159T | PYR1 K59R F159A | PYR1 K59R S122G
100 µM: all other assays above

C#CCOc1ccc(CCNC(=O)C(OCC#C)c2ccc(Cl)cc2)cc1OC (stereo not shown) [Mandipropamid, mandipropamid]
100 µM: PYR1 K59R F159C | PYR1 K59R F108T | PYR1 K59R F108G | PYR1 K59R F108I | PYR1 K59R F159M | PYR1 K59R F108V | PYR1 K59R F108S | PYR1 K59R F159T | PYR1 K59R F159A | PYR1 K59R S122G
